# Data from US20080014278A1, “METAL-CONTAINING FORMULATIONS AND METHODS OF USE” (priority 2006, published 2008).
# How the values were obtained:
# [1] = test system: Enterobacter cloacae; test: MIC assay (microdilution); format: cell-based; conditions: Ent. cloacae
# [2] = test system: Escherichia coli; test: MIC assay (microdilution); format: cell-based
# [3] = test system: Pseudomonas aeruginosa; test: MIC assay (microdilution); format: cell-based
# [4] = test system: Staphylococcus aureus; test: MIC assay (microdilution); format: cell-based; conditions: lactate solutions, nanocrystalline silver: range for 12 samples
# [5] = test system: Streptococcus pyogenes; test: MIC assay (microdilution); format: cell-based; conditions: lactate solutions, nanocrystalline silver: range for 12 samples
# [6] = test system: DNBS-induced colitis; test: DNBS-induced colitis in rat, macroscopic observations (body weight, total IBD score); format: in vivo, Sprague-Dawley rats; conditions: for total IBD score: vs placebo
# Excerpt: Animals: Male Sprague-Dawley rats, weighing approximately 250-300 gm were purchased from Charles River Laboratories (Raleigh, N.C.). The animals were housed under standard conditions with free access to food and water. They were acclimatized for 2-3 days before commencing the experiments. The study protocol was approved by the Institutional Animal Care and Use Committees (IACUC).
# Induction of ulcerative colitis: Colitis was produced according to published methods. Animals were anesthetized by intraperitoneal injection of 75 mg/kg of ketamine plus 5 mg/kg of xylazine. A single intracolonic injection of 120 mg/ml of dinitrobenzenesulfonic acid (DNBS) (Sigma Chemicals, St. Louis, Mo.) in 250 micro liter of 50% ethanol was administered through a Tom Cat catheter (Kendall Sovereign, Mansfield, Mass.) with a closed-end tip, connected to a 1 ml syringe and placed 7 cm proximal to the anus. Lubricant was applied to the tip of the catheter before injection, to protect from mucosal injury. After instillation of DNBS, 0.5 ml of air was insufflated and the catheter was removed.
# Sulfasalazine (Sigma Chemicals, St Louis, Mo.), at a concentration of 120 mg/ml for intracolonic treatment and 30 mg/ml for oral treatment was used as the reference drug in all the experiments. Sulfasalazine was first dissolved in 0.1M NaOH at a concentration about 30-fold higher than the required final concentration, and then suspended in 1.5% PVA for oral dosing and 5.7% PVA for intracolonic dosing.
# One group was not treated and served as no treatment group. Treatment began one day after administration of DNBS.
# Macroscopic Observations: Body weight was recorded daily and the animals were examined for their physical appearance. After five days of treatment, animals were sacrificed. The colon was excised between the ileocecal junction and rectum, and opened longitudinally. After scoring of the consistency of the stool the colon was rinsed in normal saline, examined and thickness of the colonic wall and number and size of ulcers were scored. Stool consistency was graded on a scale of 0-3: 0=normal stool, well formed pellets rigid as normal; 1=loose stool, formed pellet with moisture, soft stool keeping in stool shape; 2=loose stool, stools that have abnormal form with much moisture, softer shapeless stool; 3=watery or bloody diarrhea.
# Thickness of colonic wall was graded on a scale of 0-4: 0=normal, no thickness; 1=mild thickness in lower portion of the colon; 2=moderate thickness in localized area; 3=moderate thickness extending to the central portion of the colon; 4=severe thickness in the whole colon. Colonic ulceration was graded on a scale of 0-10: 0=no ulcers; 1=one small ulcer less than 2-3 mm; 2=one large ulcer more than 2-3 mm; 3=two large ulcerations more than 2-3 mm in diameter; 4=two or more sites of ulcerations extending 1 cm along the length; 5-10=when an area of ulceration extended more than 1 cm along the length of the colon, the score increases by 1 for each additional cm of involvement. The total IBD score, obtained by the sum of the scores of colonic ulcer, colon thickness and stool consistency for each animal, was calculated for each treatment group.
# Statistical Analysis: The results are expressed as the mean ±SE. The statistical significance in the mean total IBD score, histopathological inflammation score, and the immunohistochemical staining of cytokines or MMP-9 was determined using Tukey-Kramer's multiple comparison tests following one-way analysis of variance (ANOVA). The data were calculated with the aid of Instat Graph Pad Software. Differences with a P value less than 0.05 were considered significant.
# Methods: Colitis was induced in rats using DNBS as described in Example 25. Animals were treated intracolonically (250 μl of the test reagents) once a day for five days. […] Methods: Colitis was induced in rats using DNBS as described in Example 25. Animals were treated intracolonically (250 μl of the test reagents) once a day for five days.
# [7] = test system: Streptococcus pneumoniae; test: MIC assay (microdilution); format: cell-based; conditions: lactate solutions, nanocrystalline silver: range for 12 samples
# [8] = test system: Mycobacterium tuberculosis H37Ra; format: cell-based
# [9] = test system: Staphylococcus epidermidis; test: MIC assay (microdilution); format: cell-based; conditions: lactate solutions; S. epiderm (ATCC); nanocrystalline silver: range for 12 samples
# [10] = test system: TNF-α; test: Immunohistochemistry of colonic tissue; format: in vivo, rat; conditions: five days oral treatment
# Method: (§1) Immunohistochemistry: A Universal Streptavidin/Biotin detection system (Thermo Shandon, Pittsburgh, Pa.) was used for immunohistochemical staining of formalin fixed, paraffin embedded biopsies of the colon. After dewaxing, and hydration, sections were treated with protein blocking agent to reduce non-specific binding of antibodies. The tissues were then incubated with rabbit anti-rat TNF-α, or mouse anti-rat IL-12 p70 antibodies (Biosource International, Inc, Camarillo, Calif.); rabbit anti-rat IL-1β (Serotec, Raleigh, N.C.) or rabbit anti-rat MMP-9 antibody (Chemicon International, Telecuma, Calif.) in 1% bovine serum albumin in phosphate buffered saline. Incubations with secondary antibodies, streptavidin/biotin, and chromogenic detection of peroxidase were performed according to the manufacturer's protocol. Sections were counterstained, dehydrated, mounted and examined. The intensity of the immuno-peroxidase staining was graded as described previously. Expression of cytokines was graded as: 0, no staining in the section; 1, less than 25% of the section; 2, 25-50% of the section; 3, 50-75% of the section; 4, >75% of the section with significant staining.
# [11] = test system: MMP-9; test: Immunohistochemistry of colonic tissue; format: in vivo, rat; conditions: vs placebo and no treatment
# Method: as §1
# [12] = test system: IL-1β; test: Immunohistochemistry of colonic tissue; format: in vivo, rat; conditions: five days oral treatment
# Method: as §1
# [13] = test system: DNBS-induced colitis; test: DNBS-induced colitis in rat, colon histopathology; format: in vivo, Sprague-Dawley rats
# Method: Histopathology: A piece of colonic tissue at 2-4 cm proximal to the anus was excised and fixed in 10% formalin and the sections were stained with hematoxylin and eosin. The remaining length of the colonic tissues was stored at −80° C. for subsequent biochemical assays. The histology slides were examined by a veterinary pathologist who was blinded to the treatment groups. The extent of microscopic mucosal damage of the colon was scored on scale of 0-5 as described with slight modification: 0=normal histological appearance; 1=histological damage limited to surface epithelium, mild infiltration of the submucosa; 2=focal ulceration and cell disruption limited to mucosa, abnormal appearance of colonic wall, mild infiltration of inflammatory cells; 3=focal, transmural inflammation and ulceration, with mild to moderate infiltration of inflammatory cells; 4=Extensive transmural ulceration and inflammation bordered by areas of normal mucosa, moderate infiltration of inflammatory cells; 5=extensive transmural ulceration and inflammation involving entire section from epithelium to serosa, severe infiltration of inflammatory cells.
# Statistical Analysis: The results are expressed as the mean ±SE. […] The data were calculated with the aid of Instat Graph Pad Software. […]
compound,measurement,setting,value
"OO [Sample H2O2, hydrogen peroxide]",MIC,[1]; SOD/catalase +,>500 µg/mL
same,MIC,[1]; SOD/catalase −,63 µg/mL
same,MIC,"[2]; E. coli, SOD/catalase +",>500 µg/mL
same,MIC,"[2]; E. coli, SOD/catalase −",31 µg/mL
Benzalkonium chloride [BAC],MIC,[3]; P. aeruginosa isolate NP220 (BAC-sensitive),63 µg/mL
same,MIC,[3]; P. aeruginosa isolate NP221 (BAC-resistant),4000 µg/mL
same,MIC,[3]; P. aeruginosa isolate NP222 (BAC-sensitive),63 µg/mL
silver oxide [Ag2O],MIC,[4]; S. aureus (ATCC),3 µg/mL
same,MIC,[4]; S. aureus (clin.),6 µg/mL
same,MIC,[5]; S. pyog (clin. 303),2 µg/mL
same,MIC,[5]; S. pyog (clin. 304),3 µg/mL
same,total IBD score,"[6]; Example 27, 0.25% homogenized, intracolonic, five days",unable to show significant reduction of total IBD score
same,total IBD score,"[6]; Example 27, 0.5% homogenized, intracolonic, five days",unable to show significant reduction of total IBD score
same,total IBD score,"[6]; Example 27, 0.5% sonicated nanodispersion, 250 μl intracolonically once a day for five days",significantly reduced the total IBD score
same,total IBD score,"[6]; Example 28, 0.05% nanodispersion, intracolonic, five days",but not 0.15% and 0.05%
same,total IBD score,"[6]; Example 28, 0.15% nanodispersion, intracolonic, five days",but not 0.15% and 0.05%
same,total IBD score,"[6]; Example 28, 0.5% sonicated nanodispersion, 250 μl intracolonically once a day for five days",significantly reduced the total IBD score
same,total IBD score,"[6]; Example 28, 1.5% nanodispersion, intracolonic, five days",significantly reduced the total IBD score
same,MIC,"[2]; lactate solutions, E. coli (ATCC), nanocrystalline silver: range for 12 samples",0.8 µg/mL
same,MIC,[7]; S. pneumo (clin 314),3 µg/mL
same,MIC,[7]; S. pneumo (clin 315),2 µg/mL
same,MIC,"[3]; lactate solutions, P. aerug (ATCC), nanocrystalline silver: range for 12 samples",0.8 µg/mL
same,MIC,"[3]; lactate solutions, P. aerug. (clin.), nanocrystalline silver: range for 12 samples",2 µg/mL
same,MIC,[8],2.5 μg/ml silver
same,MIC,[9],2 µg/mL
"O=C(O)c1cc(/N=N/c2ccc(S(=O)(=O)Nc3ccccn3)cc2)ccc1O [sulfasalazine, salicylazosulfapyridine]",body weight,"[6]; DNBS colitis rats, intracolonic or oral treatment",started gaining body weight after one day of treatment
same,total IBD score,"[6]; Example 27, 100 mg/kg",significantly reduced total IBD score
same,total IBD score,"[6]; Example 28, 100 mg/kg",significantly reduced total IBD score
same,expression of TNF-α (immunohistochemical staining),[10],significantly reduced the expression
same,expression of MMP-9 (immunohistochemical staining),[11],significantly reduced the expression of MMP-9
same,expression of IL-1β (immunohistochemical staining),[12],significantly reduced the expression
same,histopathological inflammation score,"[13]; oral 100 mg/kg, vs placebo and untreated",significantly reduced the histopathological inflammation
same,colon sections (hematoxylin and eosin),"[13]; oral, 40 mg/kg nanocrystalline silver, 100 mg/kg sulfasalazine",healed mucosa and few residual inflammatory infiltrate
